Results from patent US20100047294A1, “SEMI-FINISHED PRODUCT IN THE MANUFACTURE OF A COMPOSITION FOR SKIN OR HAIR CARE” (OY GRANULA AB LTD, priority 2006, published 2010).
Read-outs that look alike come from different tables or passages of the source.

Legend:
[1] = extracts from knot wood of the tree trunk; compared with Trolox; lower value = better capture; cited from earlier work
[2] = Ability to capture free radicals (statements in words)

| Compound | Capture of peroxyl radicals in vitro [1] [g/mol] | also measured |
| --- | --- | --- |
| Cc1c(C)c2c(c(C)c1O)CCC(C)(C(=O)O)O2 (centres unmarked) [trolox, reference compound] | 125 | – |
| pinoresinol | 129 | – |
| COc1cc(C[C@H]2CO[C@H](c3ccc(O)c(OC)c3)[C@H]2CO)ccc1O [lariciresinol] | 370 | – |
| Oc1ccc([C@H]2Oc3c(ccc(O)c3O)[C@@H](O)[C@H]2O)cc1O [melacasidine] | 50 | – |
| COc1cc(C[C@H]2COC(=O)[C@@H]2Cc2ccc(O)c(OC)c2)ccc1O [matairesinol] | 345 | – |
| COc1cc(C[C@H]2C(=O)OC[C@@H]2[C@H](O)c2ccc(O)c(OC)c2)ccc1O [hydroxymatairesinol] | 179 | ability to capture free radicals, in words [2]: relatively good in capturing the free radicals |
| COc1cc(CC2COC(=O)C2(O)Cc2ccc(O)c(OC)c2)ccc1O (centres unmarked) [nortrachelogenin] | 169 | – |
| COc1cc([C@H]2c3cc(O)c(OC)cc3C[C@@H](CO)[C@@H]2CO)ccc1O [cyclolariciresinol] | 118 | – |
| Oc1ccc([C@H]2Oc3c(ccc(O)c3O)[C@@H](O)[C@H]2O)cc1 [teracasidine] | 128 | – |
| COc1cc(C[C@H]2COC(=O)C2C(=O)c2ccc(O)c(OC)c2)ccc1O (some centres unmarked) [7-oxomatairesinol] | – | ability to capture free radicals, in words [2]: even better than that of hydroxymatairesinol; ability to capture free radicals, in words ([2]; listed as Oxomatairesinol): comparable to that of hydroxymatairesinol or even better; ability to capture free radicals, in words ([2]; listed as oxomatairesinol): relatively good in capturing the free radicals |
| COc1cc(C[C@@H](CO)[C@H](CO)Cc2ccc(O)c(OC)c2)ccc1O [secoisolariciresinol] | – | ability to capture free radicals, in words [2]: relatively good in capturing the free radicals |
